According to patent publication US20230066011A1, “PYRROLOPYRIMIDINE DERIVATIVE, AND PHARMACEUTICAL COMPOSITION FOR PREVENTING OR TREATING PROTEIN KINASE-RELATED DISEASE COMPRISING SAME AS ACTIVE INGREDIENT” (VORONOI CO., LTD., priority 2019, published 2023):

How the values were obtained:
human GST-DYRK1A = target: T1, human GST-DYRK1A (Homo sapiens, UniProt Q13627); assay: GST-DYRK1A enzyme inhibition, ADP-Glo kinase assay; format: biochemical; conditions: ATP 10 μM, GST-DYRK1A full length, read-out: DYRK1 IC50
T1 construct: purified human GST-DYRK1A (full length, Thermo Scientifics) enzyme; purchased Thermo Scientifics
Summary of the method: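 Full-length human GST-DYRK1A (10 ng) with 10 μM ATP and specific substrate in 40 mM Tris-HCl pH 7.4, 20 mM MgCl2, 0.5 mg/mL BSA, 50 μM DTT, 1 h at 25 °C. ADP formation read by ADP-Glo luminescence relative to solvent control; IC50 from three data sets.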

human GST-CLK1 = target: T2, human GST-CLK1 (Homo sapiens, UniProt P49759); assay: GST-CLK1 enzyme inhibition, ADP-Glo kinase assay; format: biochemical; conditions: ATP 10 μM, GST-CLK1 129-end
T2 construct: purified human GST-CLK1 (129-end, SignalChem) enzyme; purchased SignalChem
Summary of the method: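 Human GST-CLK1 (129-end, 3 ng) reacted with substrate and 10 μM ATP for 1 h at 25° C in 40 mM Tris-HCl pH 7.4, 20 mM MgCl2, 0.5 mg/mL BSA, 50 μM DTT. ADP-Glo luminescence was normalised to solvent control; IC50 (nM) from 3 data sets.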

T2 sequence (P49759 129-484 limits assumed): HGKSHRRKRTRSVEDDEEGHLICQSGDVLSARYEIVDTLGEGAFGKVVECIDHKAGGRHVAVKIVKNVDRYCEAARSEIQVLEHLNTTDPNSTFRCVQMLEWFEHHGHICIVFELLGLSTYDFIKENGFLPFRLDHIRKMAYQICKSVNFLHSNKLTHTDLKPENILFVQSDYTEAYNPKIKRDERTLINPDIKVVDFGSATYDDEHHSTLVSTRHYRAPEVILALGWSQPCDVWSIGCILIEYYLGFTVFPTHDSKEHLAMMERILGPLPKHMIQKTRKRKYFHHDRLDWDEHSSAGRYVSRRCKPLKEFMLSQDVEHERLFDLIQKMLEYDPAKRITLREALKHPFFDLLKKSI

SMILES | IC50 (human GST-DYRK1A) | IC50 (human GST-CLK1)
N#Cc1c[nH]c2nc(Nc3ccc(C(=O)N4CC(CO)(CO)C4)c4c3OCCO4)nc(NC3CCOCC3)c12 [Example 337, 2-((8-(3,3-bis (hydroxymethyl)azetidine-1-carbonyl)-2,3-dihydrobenzo[b] [1,4]dioxin-5-yl)amino)-4-((tetrahydro-2H-pyran-4-yl)amino)-7H-pyrrolo[2,3-d]pyrimidine-5-carbonitrile] | 301 to 1000 nM | < 100 nM
N#Cc1c[nH]c2nc(Nc3ccc(C(=O)N4CC(CO)(CO)C4)c4c3OCCO4)nc(NCC3CCCC3)c12 [Example 340, 2-((8-(3,3-bis (hydroxymethyl)azetidine-1-carbonyl)-2,3-dihydrobenzo [b][1,4]dioxin-5-yl)amino)-4-((cyclopentyl-methyl)amino)-7H-pyrrolo[2,3-d]pyrimidine-5-carbonitrile] | 301 to 1000 nM | < 100 nM
CC(C)Nc1nc(Nc2ccc(C(=O)N3CCC(N4CCOCC4)CC3)c3c2OCCO3)nc2[nH]cc(C(F)(F)F)c12 [Example 365, (8-((4-(isopropylamino)-5-(trifluoromethyl)-7H-pyrrolo[2,3-d]pyrimidin-2-yl)amino)-2,3-dihydrobenzo[b] [1,4]dioxin-5-yl) (4-morpholino-piperidin-1-yl)methanone] | < 100 nM | < 100 nM
CCNc1nc(Nc2ccc(P(C)(C)=O)cc2OC)nc2[nH]cc(C(F)(F)F)c12 [Example 368, (4-((4-(ethylamino)-5-(trifluoromethyl)-7H-pyrrolo[2,3-d]pyrimidin-2-yl)amino)-3-methoxyphenyl) dimethyl-phosphine oxide] | 101 to 300 nM | < 100 nM
CCCNc1nc(Nc2ccc(P(C)(C)=O)cc2OC)nc2[nH]cc(C(F)(F)F)c12 [Example 369, (3-methoxy-4-((4-(propylamino)-5-(trifluoromethyl)-7H-pyrrolo[2,3-d]pyrimidin-2-yl)amino)phenyl) dimethyl-phosphine oxide] | 101 to 300 nM | < 100 nM
COc1cc(P(C)(C)=O)ccc1Nc1nc(NCC(C)C)c2c(C(F)(F)F)c[nH]c2n1 [Example 370, (4-((4-(isobutylamino)-5-(trifluoromethyl)-7H-pyrrolo[2,3-d]pyrimidin-2-yl)amino)-3-methoxyphenyl) dimethyl-phosphine oxide] | 301 to 1000 nM | < 100 nM
COc1cc(P(C)(C)=O)ccc1Nc1nc(NC(C)C)c2c(C(F)(F)F)c[nH]c2n1 [Example 371, (4-((4-(isopropylamino)-5-(trifluoromethyl)-7H-pyrrolo[2,3-d]pyrimidin-2-yl)amino)-3-methoxyphenyl) dimethyl phosphine oxide] | 301 to 1000 nM | 101 to 300 nM
CC[C@H](C)Nc1nc(Nc2ccc(S(=O)(=O)N3CCOCC3)cc2OC)nc2[nH]cc(C(F)(F)F)c12 [Example 379, (S)-N^4-(sec-butyl)-N^2-(2-methoxy-4-(morpholino-sulfonyl)phenyl)-5-(trifluoromethyl)-7H-pyrrolo[2,3-d]pyrimidine-2,4-diamine] | 301 to 1000 nM | 301 to 1000 nM
CC[C@H](C)Nc1nc(Nc2ccc(S(C)(=O)=O)cc2OC)nc2[nH]cc(C(F)(F)F)c12 [Example 380, (S)-N^4-(sec-butyl)-N^2-(2-methoxy-4-(methylsulfonyl)phenyl)-5-(trifluoromethyl)-7H-pyrrolo[2,3-d]pyrimidine-2,4-diamine] | 301 to 1000 nM | 301 to 1000 nM
COc1cc(P(C)(C)=O)ccc1Nc1nc(NC2CCC2)c2c(C(F)(F)F)c[nH]c2n1 [Example 386, (4-((4-(cyclo-butylamino)-5-(trifluoromethyl)-7H-pyrrolo[2,3-d]pyrimidin-2-yl)amino)-3-methoxyphenyl) dimethyl phosphine oxide] | 301 to 1000 nM | 301 to 1000 nM

The next lines start with the values.

IC50 (human GST-DYRK1A) | IC50 (human GST-CLK1) | SMILES
301 to 1000 nM | < 100 nM | N#Cc1c[nH]c2nc(Nc3ccc(C(=O)N4CC(CO)(CO)C4)c4c3OCCO4)nc(N[C@H]3CCOC3)c12 [Example 336, (S)-2-((8-(3,3-bis (hydroxymethyl)azetidine-1-carbonyl)-2,3-dihydrobenzo[b] [1,4]dioxin-5-yl)amino)-4-((tetrahydrofuran-3-yl)amino)-7H-pyrrolo[2,3-d]pyrimidine-5-carbonitrile]
101 to 300 nM | < 100 nM | N#Cc1c[nH]c2nc(Nc3ccc(C(=O)N4CC(CO)(CO)C4)c4c3OCCO4)nc(NCC3CC3)c12 [Example 338, 2-((8-(3,3-bis (hydroxymethyl)azetidine-1-carbonyl)-2,3-dihydrobenzo [b][1,4]dioxin-5-yl)amino)-4-((cyclopropyl-meth-yl)amino)-7H-pyrrolo[2,3-d]pyrimidine-5-carbonitrile]
301 to 1000 nM | < 100 nM | N#Cc1c[nH]c2nc(Nc3ccc(C(=O)N4CC(CO)(CO)C4)c4c3OCCO4)nc(NCC3CCC3)c12 [Example 339, 2-((8-(3,3-bis (hydroxymethyl)azetidine-1-carbonyl)-2,3-dihydrobenzo [b][1,4]dioxin-5-yl)amino)-4-((cyclobutyl-methyl)amino)-7H-pyrrolo[2,3-d]pyrimidine-5-carbonitrile]
301 to 1000 nM | < 100 nM | CCCCNc1nc(Nc2ccc(C(=O)N3CC(CO)(CO)C3)c3c2OCCO3)nc2[nH]cc(C#N)c12 [Example 341, 2-((8-(3,3-bis (hydroxymethyl)azetidine-1-carbonyl)-2,3-dihydrobenzo [b][1,4]dioxin-5-yl)amino)-4-(butylamino)-7H-pyrrolo[2,3-d]pyrimidine-5-carbonitrile]
301 to 1000 nM | 301 to 1000 nM | N#Cc1c[nH]c2nc(Nc3ccc(C(=O)N4CCOCC4)c4c3OCC4)nc(NCC3CCCC3)c12 [Example 342, 4-((cyclo-pentylmeth-yl)amino)-2-((4-(morpholine-4-carbonyl)-2,3-dihydrobenzo-furan-7-yl)amino)-7H-pyrrolo[2,3-d]pyrimidine-5-carbonitrile]
301 to 1000 nM | < 100 nM | CS(=O)(=O)CCNc1nc(Nc2ccc(C(=O)N3CCOCC3)c3c2OCC3)nc2[nH]cc(C#N)c12 [Example 344, 4-((2-(methyl-sulfonyl)eth-yl)amino)-2-((4-(morpholine-4-carbonyl)-2,3-dihydrobenzo-furan-7-yl)amino)-7H-pyrrolo[2,3-d]pyrimidine-5-carbonitrile]
101 to 300 nM | < 100 nM | CCNc1nc(Nc2ccc(C(=O)N3CCOCC3)c3c2OCC3)nc2[nH]cc(C#N)c12 [Example 346, 4-(ethylamino)-2-((4-(morpholine-4-carbonyl)-2,3-dihydrobenzo-furan-7-yl)amino)-7H-pyrrolo[2,3-d]pyrimidine-5-carbonitrile]
301 to 1000 nM | < 100 nM | CCCNc1nc(Nc2ccc(C(=O)N3CCOCC3)c3c2OCC3)nc2[nH]cc(C#N)c12 [Example 348, 2-((4-(morpholine-4-carbonyl)-2,3-dihydrobenzo-furan-7-yl)amino)-4-(propylamino)-7H-pyrrolo[2,3-d]pyrimidine-5-carbonitrile]
301 to 1000 nM | < 100 nM | CC(C)CNc1nc(Nc2ccc(C(=O)N3CCOCC3)c3c2OCC3)nc2[nH]cc(C#N)c12 [Example 350, 4-(isobutyl-amino)-2-((4-(morpholine-4-carbonyl)-2,3-dihydrobenzo-furan-7-yl)amino)-7H-pyrrolo[2,3-d]pyrimidine-5-carbonitrile]
301 to 1000 nM | < 100 nM | CC(C)CNc1nc(Nc2ccc(C(=O)N3CCC(N4CCOCC4)CC3)c3c2OCC3)nc2[nH]cc(C#N)c12 [Example 351, 4-(isobutyl-amino)-2-((4-(4-morpholino-piperidine-1-carbonyl)-2,3-dihydro-benzofuran-7-yl)amino)-7H-pyrrolo[2,3-d]pyrimidine-5-carbonitrile]
301 to 1000 nM | < 100 nM | CC(C)Nc1nc(Nc2ccc(C(=O)N3CCOCC3)c3c2OCC3)nc2[nH]cc(C#N)c12 [Example 352, 4-(isopropyl-amino)-2-((4-(morpholine-4-carbonyl)-2,3-dihydro-benzofuran-7-yl)amino)-7H-pyrrolo[2,3-d]pyrimidine-5-carbonitrile]
101 to 300 nM | 101 to 300 nM | COCCNc1nc(Nc2ccc(C(=O)N3CCOCC3)c3c2OCC3)nc2[nH]cc(C#N)c12 [Example 358, 4-((2-methoxy-ethyl)ami-no)-2-((4-(morpholine-4-carbonyl)-2,3-dihydrobenzo-furan-7-yl)amino)-7H-pyrrolo[2,3-d]pyrimidine-5-carbonitrile]
101 to 300 nM | < 100 nM | N#Cc1c[nH]c2nc(Nc3ccc(C(=O)N4CCOCC4)c4c3OCC4)nc(NC3CCC3)c12 [Example 360, 4-(cyclo-butylamino)-2-((4-(morpholine-4-carbonyl)-2,3-dihydrobenzo-furan-7-yl)amino)-7H-pyrrolo[2,3-d]pyrimidine-5-carbonitrile]
< 100 nM | < 100 nM | CCNc1nc(Nc2ccc(C(=O)N3CCOCC3)c3c2OCC3)nc2[nH]cc(C(F)(F)F)c12 [Example 437, (7-((4-(ethylamino)-5-(trifluoromethyl)-7H-pyrrolo[2,3-d]pyrimidin-2-yl)amino)-2,3-dihydrobenzo-furan-4-yl) (morpholino) methanone]
< 100 nM | < 100 nM | CCCNc1nc(Nc2ccc(C(=O)N3CCOCC3)c3c2OCC3)nc2[nH]cc(C(F)(F)F)c12 [Example 445, morpholino(7-((4-(propylamino)-5-(trifluoromethyl)-7H-pyrrolo[2,3-d]pyrimidin-2-yl)amino)-2,3-dihydrobenzo-furan-4-yl)methanone]
